Results as given in PMC3671673, “In Vitro Morphological Assessment of Apoptosis Induced by Antiproliferative Constituents from the Rhizomes of Curcuma zedoaria” (Evidence-based Complementary and Alternative Medicine : eCAM, 2013).
≈ marks a conversion by molar mass, not a printed value. Marks after values point to notes of the source that are not given here.

How the values were obtained:
HCT-116 cells = experiment: Morphological changes by phase contrast inverted microscope, HCT-116; format: cell-based, human; settings: HCT-116, 48 h, 12.5-50 μg/mL, phase contrast 200x
Protocol: Observation of morphological changes of apoptotic cells was performed according to the method with slight modifications. Briefly, 5 × 10^5 cells were incubated for 48 hours with or without selected compounds at concentrations of 12.5, 25, 40, and 50 μg/mL in a 60 mm diameter tissue culture dishes. The medium was discarded and cells were washed once with PBS. The morphological changes of the apoptotic cells were observed using phase contrast inverted microscope (Leica DMI 3000B, Germany) at 200x magnifications.

[1] = test system: hormone-dependent breast cancer cell line (MCF-7); experiment: cells; format: cell-based; settings: Homo sapiens, MCF7; isolated compounds, 72 h, neutral red, mean ± SD of three replicates; read-out: IC50 (μg/mL) MCF-7
Protocol: (§1) The human cancer cells KB, Ca Ski, MCF-7, HCT-116, A549, and noncancer human cell lines (MRC-5) were purchased from the American Tissue Culture Collection (ATCC, USA). The supplemented RPMI 1640 media and eagle minimum essential medium (EMEM) were purchased from Sigma-Aldrich, USA. The supplements or antibiotics such as foetal bovine serum (FBS), penicillin/streptomycin (P/S) (100 μg/mL), amphotericin B (50 μg/mL), and accutase were purchased from PAA Laboratories, Austria. Sodium pyruvate (11 mg/mL) purchased from Sigma-Aldrich, USA. The cells were cultured in a SHEL LAB water-jacketed CO2 incubator with […] tissue culture flasks (Nunc, Denmark), which was observed routinely under inverted microscope (Leica DMI3000 B, Germany) for any contamination and seeded into 96-well flat bottom microtiter plate (Nunc, Denmark). The extract or pure compounds was dissolved in dimethyl sulfoxide (DMSO, Molecular Biology Grade, >99.9%) from Sigma-Aldrich, USA. Microtiter plate incubator shaker (LT Biomax 500) was used and absorbance was measured at 540 nm using an ELISA microplate reader (EMax microplate reader of Molecular Devices, USA). MCF-7 and Ca Ski were cultured in RPMI 1640 media supplemented with 10% v/v FBS, P/S, and amphotericin B and MRC-5 in EMEM media with 10% v/v FBS, P/S, amphotericin B, and sodium pyruvate. The cells were cultured in tissue culture flask in 5% CO2 incubator kept at 37°C in a humidified atmosphere and observed routinely under inverted microscope from any contaminations. Each fresh medium was replaced every 2 or 3 days until cell confluence was achieved and the cells were detached by using accutase.
(§2) The in vitro cytotoxicity activity was performed using the neutral red cytotoxicity assay based on the initial protocol as described earlier with some modifications. Briefly, cells were detached from the tissue culture flask with 1.0 mL solution of accutase and PBS solution. The cell pellet was obtained by centrifugation at 1,000 rpm for 5 minutes. The density of the viable cells was counted by 0.4% of trypan blue exclusion in a haemocytometer. Cells were then plated in 96-well microtiter plate (Nunc), at a concentration of 1 × 10^4 cells/well and incubated in a CO2 incubator at 37°C to allow the cells to adhere. After 24 h, the cells were treated with six different concentrations, that is, 1, 10, 25, 50, 75, and 100 μg/mL of each tested agent in three replicates. The plates were incubated for 72 h at 37°C in a 5% CO2 incubator. The untreated cells were regarded as a negative control, whilst cells incubated only with DMSO (0.5%, v/v) were used as a vehicle control. No effect due to the DMSO was observed. Doxorubicin was used as the positive control. After 72 h, the old medium was substituted with fresh medium containing 50 μg/mL neutral red. The 96-well plates were placed into incubator for 3 h. This is to allow the uptake of the vital dye into the lysosomes of viable and undamaged cells. Then, the media was discarded and cells were washed with 200 μL of neutral red washing solution. The dye was eluted from the cells by adding neutral red resorb solution (200 μL). The plate was further incubated for 30 min with rapid agitation on a microtiter plate shaker. The optical density (OD) of the eluted dye was read at 540 nm using a microplate reader. The experiments were conducted in triplicates. The percentage of inhibition of each of the test samples was calculated according to the following formula using the OD values obtained: percentage of inhibition (%) = (OD control − OD sample)/OD control × 100%. The average of three replicates was then obtained. Cytotoxicity of each test agent is expressed as IC50 value. The IC50 value is the concentration of test agents that cause 50% inhibition or cell death, averaged from the three experiments. The IC50 for each extract was extrapolated from the graphs of the percentage inhibition versus concentration of test agents.

[2] = test system: cervical carcinoma cell line (Ca Ski); experiment: cells; format: cell-based; settings: Homo sapiens, isolated compounds, 72 h, neutral red, mean ± SD of three replicates, read-out: IC50 (μg/mL) Ca Ski
Protocol: as §1, §2

Ca Ski cells = experiment: Hoechst 33342/PI dual staining, quantification of apoptotic/necrotic cells, Ca Ski; format: cell-based, human; settings: 48 h
Protocol: Briefly, cells were grown on tissue culture dishes and treated with or without tested compounds at concentrations of 12.5, 25, 40, and 50 μg/mL. After 48 hours, the cells were harvested and washed with cold PBS to a density of 5 × 10^5 cells/mL. The cells were suspended in Hoechst 33342 solution (10 μg/mL) and were incubated at 37°C in CO2 for 7 minutes. After incubation with Hoechst 33342, the cells were counter stained with propidium iodide (2.5 μg/mL). The samples were maintained in the dark for 15 minutes. After staining, an aliquot of cell suspension was placed on a glass microscope slides. The slides were observed immediately under inverted fluorescence microscope (DM16000B, Germany) using UV/488 dual excitation and the fluorescence was measured at ~460 nm emission of Hoechst 33342 dye and >575 nm emission of propidium iodide at 630x magnification. At least 200 total target cells were counted and the numbers of each four cellular states were recorded and analyzed using fluorescence microscopy for quantification of apoptosis and necrosis. The experiment was conducted in triplicates. The percentages of apoptotic and necrotic cells were determined according to the following formula [27]: (1) Percentage of Apoptotic Cells (%) =(LA+DA)/ LN+LA+DN+DA×100,Percentage of Necrotic Cells (%) = DN/LN+LA+DN+DA×100, where LN are live target cells with normal nuclei (Hoechst 33342/PI: blue chromatin with organized structure), LA are live cells with apoptotic nuclei (Hoechst 33342/PI: bright blue chromatin that is highly condensed or fragmented), DN are dead cells with normal nuclei (Hoechst 33342/PI: pink chromatin with organized structure), and DA are dead cells with apoptotic nuclei (Hoechst 33342/PI: bright pink chromatin that is, highly condensed or fragmented).

[3] = test system: colon carcinoma cell line (HCT-116); experiment: Neutral red cytotoxicity assay, HCT-116; format: cell-based; settings: Homo sapiens, isolated compounds, 72 h, mean ± SD of three replicates, read-out: IC50 (μg/mL) HCT-116
Protocol: as §1
as §2, with “The percentage of inhibition of each of the test samples was calculated according to the following formula using the OD values obtained: percentage of inhibition (%) = (OD control − OD sample)/OD control × 100%. The average of three replicates was then obtained.” left out, “The IC50 value is the concentration of test agents that cause 50% inhibition or cell death, averaged from the three experiments. The IC50 for each extract was extrapolated from the graphs of the percentage inhibition versus concentration of test agents.” left out

Compound	morphological changes (in words) (HCT-116 cells)	IC50 [1] [µg/mL]	IC50 [2] [µg/mL]	Percentage of apoptotic cells (%) (Ca Ski cells; 12.5 μg/mL)	Percentage of necrotic cells (%) (Ca Ski cells; 12.5 μg/mL)	Percentage of apoptotic cells (%) (Ca Ski cells; 25 μg/mL)	Percentage of necrotic cells (%) (Ca Ski cells; 25 μg/mL)	Percentage of apoptotic cells (%) (Ca Ski cells; 25 μg/mL, listed as alismol)	Percentage of apoptotic cells (%) (Ca Ski cells; 40 μg/mL)	Percentage of necrotic cells (%) (Ca Ski cells; 40 μg/mL)	Percentage of apoptotic cells (%) (Ca Ski cells; 50 μg/mL)	Percentage of necrotic cells (%) (Ca Ski cells; 50 μg/mL)	Percentage of necrotic cells (%) (Ca Ski cells; 50 μg/mL, listed as alismol)	IC50 [3] [µg/mL]	Percentage of apoptotic cells (%) (Ca Ski cells; 50 μg/mL, listed as curzerenone)
C=C1CCC(C(C)C)=CC2C1CC[C@@]2(C)O (stereo partly drawn) [Alismol, alismol]	typical apoptotic features	10 ± 0.7 (≈ 45.4 µM)	8.7 ± 1.1 (≈ 39.5 µM)	8.83 ± 0.58^a %	5.83 ± 1.50^a %	53.67 ± 1.76^d %	14.00 ± 3.50^b %	53.7 ± 1.8	41.67 ± 0.76^c %	45.33 ± 0.60^c %	32.67 ± 1.04^b %	60.33 ± 1.00^d %	60.3 ± 1.0	9 ± 0.9 (≈ 40.8 µM)	
C=CC1(C)Cc2occ(C)c2C(=O)C1C(=C)C (stereo not drawn) [Curzerenone, curzerenone]	typical apoptotic features	40 ± 0.5 (≈ 174 µM)	8.9 ± 0.7 (≈ 38.6 µM)	4.82 ± 0.59^a %	3.50 ± 1.30^a %	7.89 ± 1.77^b %	5.57 ± 1.10^b %		39.67 ± 1.89^c %	11.83 ± 2.10^c %	54.67 ± 1.76^d %	16.33 ± 1.0^d %		53 ± 1.5 (≈ 230 µM)	54.7 ± 1.8
